According to ChEMBL document CHEMBL2016512, “Calcitonin gene-related peptide (CGRP) receptor antagonists: novel aspartates and succinates” (Bioorg Med Chem Lett, 2012):
pIC50: −log10 of the molar value.

Key:
[1] = target: T1, Calcitonin gene-related peptide type 1 receptor (Homo sapiens, UniProt O60894+Q16602); experiment: Displacement of [125]CGRP from human CGRP receptor expressed in human SK-N-MC cell membrane after 2 hrs by scintillation counting; assay type: cell membranes
[2] = test system: Caco-2; experiment: Permeability across human Caco2 cells; assay type: ADME, cell-based
[3] = Solubility of the compound; assay type: physicochemical
[4] = target: T1, Calcitonin gene-related peptide type 1 receptor; experiment: Antagonist activity at human CGRP receptor expressed in human SK-N-MC cells assessed as inhibition of CGRP-stimulated cAMP production; assay type: functional, cell-based
[5] = Aqueous solubility of the compound; assay type: physicochemical; settings: buffer

T1 sequence (Q16602 whole entry, one chain of several): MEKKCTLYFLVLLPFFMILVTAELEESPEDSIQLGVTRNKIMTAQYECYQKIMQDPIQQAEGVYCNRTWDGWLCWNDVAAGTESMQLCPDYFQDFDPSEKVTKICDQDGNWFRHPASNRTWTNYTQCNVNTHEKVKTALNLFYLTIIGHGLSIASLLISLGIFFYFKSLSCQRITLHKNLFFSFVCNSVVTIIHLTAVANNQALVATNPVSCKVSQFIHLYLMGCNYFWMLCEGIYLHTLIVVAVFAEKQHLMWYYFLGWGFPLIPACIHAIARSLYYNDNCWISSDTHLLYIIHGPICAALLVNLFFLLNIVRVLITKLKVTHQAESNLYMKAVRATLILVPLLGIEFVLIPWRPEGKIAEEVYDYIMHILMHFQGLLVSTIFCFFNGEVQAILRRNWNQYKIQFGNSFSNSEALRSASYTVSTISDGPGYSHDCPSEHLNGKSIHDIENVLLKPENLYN

O=C(Nc1ccccc1F)N[C@@H](CC(=O)N1CCC(N2Cc3ccccc3NC2=O)CC1)C(=O)N1CCC(N2CCCCC2)CC1
pIC50 [1]: 7.35 | permeability [2]: impermeable | solubility [3]: Insoluble

O=C(C[C@H](Nc1cc(Cl)ncn1)C(=O)N1CCC(N2CCCCC2)CC1)N1CCC(N2Cc3ccccc3NC2=O)CC1
pIC50 [1]: 7.01 | pIC50 [4]: 7.34

Cc1cc(CC(CC(=O)N2CCC(c3cc4ccccc4[nH]c3=O)CC2)C(=O)N2CCC(N3CCCCC3)CC2)cc2cn[nH]c12 (racemic)
pIC50 [1]: 9.52 | pIC50 [4]: 9.92

O=C(C[C@H](Nc1ccc(Br)c2ccccc12)C(=O)N1CCC(N2CCCCC2)CC1)N1CCC(N2Cc3ccccc3NC2=O)CC1
pIC50 [1]: 6.92

O=C(C[C@H](Nc1ccncn1)C(=O)N1CCC(N2CCCCC2)CC1)N1CCC(N2Cc3ccccc3NC2=O)CC1
pIC50 [1]: 5.85

Cc1cc(C[C@H](CC(=O)N2CCC(N3Cc4cccc(F)c4NC3=O)CC2)C(=O)N2CCC(N3CCCCC3)CC2)cc2cn[nH]c12
pIC50 [1]: 8.17 | solubility [5]: Insoluble | pIC50 [4]: 8.34 | permeability [2]: impermeable

O=C(C[C@H](NCc1ccccn1)C(=O)N1CCC(N2CCCCC2)CC1)N1CCC(N2Cc3ccccc3NC2=O)CC1
pIC50 [1]: 6.15

O=C(C[C@H](Nc1nc(Cl)nc2[nH]ncc12)C(=O)N1CCC(N2CCCCC2)CC1)N1CCC(N2Cc3ccccc3NC2=O)CC1
pIC50 [1]: 6.60 | pIC50 [4]: 7.00

O=C(C[C@H](Nc1cccc2ccccc12)C(=O)N1CCC(N2CCCCC2)CC1)N1CCC(N2Cc3ccccc3NC2=O)CC1
pIC50 [1]: 6.66

O=C(C[C@H](Nc1ccc2[nH]ncc2c1)C(=O)N1CCC(N2CCCCC2)CC1)N1CCC(N2Cc3ccccc3NC2=O)CC1
pIC50 [1]: 6.77 | pIC50 [4]: 6.64

Cc1cc(CC(CC(=O)N2CCC(N3Cc4ccccc4NC3=O)CC2)C(=O)N2CCC3(CC2)OCCO3)cc2cn[nH]c12 (racemic)
pIC50 [1]: 8.49 | pIC50 [4]: 8.24

O=C(C[C@H](NCc1ccc2[nH]ccc2c1)C(=O)N1CCC(N2CCCCC2)CC1)N1CCC(N2Cc3ccccc3NC2=O)CC1
pIC50 [1]: 6.42

O=C(C[C@H](Nc1ccc2[nH]ccc2c1)C(=O)N1CCC(N2CCCCC2)CC1)N1CCC(N2Cc3ccccc3NC2=O)CC1
pIC50 [1]: 6.74 | pIC50 [4]: 7.23

O=C(N[C@@H](CC(=O)N1CCC(N2Cc3ccccc3NC2=O)CC1)C(=O)N1CCC(N2CCCCC2)CC1)Oc1ccccc1
pIC50 [1]: 6.55

Cc1cc(C[C@@H](CC(=O)N2CCC(N3Cc4ccccc4NC3=O)CC2)C(=O)N2CCC(N3CCCCC3)CC2)cc2cn[nH]c12
pIC50 [1]: 10.22 | solubility [5]: Insoluble | pIC50 [4]: 10.72 | permeability [2]: impermeable

O=C(C[C@H](NCc1ccc2[nH]ncc2c1)C(=O)N1CCC(N2CCCCC2)CC1)N1CCC(N2Cc3ccccc3NC2=O)CC1
pIC50 [1]: 6.89 | pIC50 [4]: 6.52

O=C(Nc1ccc(Cl)cc1Cl)N[C@@H](CC(=O)N1CCC(N2Cc3ccccc3NC2=O)CC1)C(=O)N1CCC(N2CCCCC2)CC1
pIC50 [1]: 7.44 | permeability [2]: impermeable | solubility [3]: Insoluble

O=C(Nc1cccc(Cl)c1Cl)N[C@@H](CC(=O)N1CCC(N2Cc3ccccc3NC2=O)CC1)C(=O)N1CCC(N2CCCCC2)CC1
pIC50 [1]: 7.01 | permeability [2]: impermeable | solubility [3]: Insoluble

O=C(N[C@@H](CC(=O)N1CCC(N2Cc3ccccc3NC2=O)CC1)C(=O)N1CCC(N2CCCCC2)CC1)c1ccc(F)c(F)c1
pIC50 [1]: 6.37

Cc1nc(N[C@@H](CC(=O)N2CCC(N3Cc4ccccc4NC3=O)CC2)C(=O)N2CCC(N3CCCCC3)CC2)nc2nn[nH]c12
pIC50 [1]: 7.14 | pIC50 [4]: 6.92

Cc1cc(C[C@@H](CC(=O)N2CCC(N3Cc4cccc(F)c4NC3=O)CC2)C(=O)N2CCC(N3CCCCC3)CC2)cc2cn[nH]c12
pIC50 [1]: 9.70 | solubility [5]: Insoluble | pIC50 [4]: 10.09 | permeability [2]: impermeable

Cc1cc(CC(CC(=O)N2CCC(N3Cc4ccccc4NC3=O)CC2)C(=O)N2CCCCC2)cc2cn[nH]c12 (racemic)
pIC50 [1]: 8.43 | pIC50 [4]: 8.16

O=C(C[C@H](Nc1cccc2ncccc12)C(=O)N1CCC(N2CCCCC2)CC1)N1CCC(N2Cc3ccccc3NC2=O)CC1
pIC50 [1]: 6.05

Cc1cc(CC(CC(=O)N2CCC3(CC2)OC(=O)Nc2ccccc23)C(=O)N2CCC3(CC2)OCCO3)cc2cn[nH]c12 (racemic)
pIC50 [1]: 8.23 | pIC50 [4]: 8.06

Cc1cc(CC(CC(=O)N2CCC(N3Cc4ccccc4NC3=O)CC2)C(=O)N2CCC(N3CCCCC3)CC2)cc2cn[nH]c12 (racemic)
pIC50 [1]: 10.13 | pIC50 [4]: 10.17

O=C(C[C@H](Nc1ccc(Cl)cc1[N+](=O)[O-])C(=O)N1CCC(N2CCCCC2)CC1)N1CCC(N2Cc3ccccc3NC2=O)CC1
pIC50 [1]: 7.49 | pIC50 [4]: 7.49

O=C(CC(Cc1ccc2[nH]ncc2c1)C(=O)N1CCC2(CC1)OCCO2)N1CCC(N2Cc3ccccc3NC2=O)CC1 (racemic)
pIC50 [1]: 7.06 | pIC50 [4]: 6.49

Cc1cc(CC(CC(=O)N2CCC(N3Cc4cccc(F)c4NC3=O)CC2)C(=O)N2CCC(N3CCCCC3)CC2)cc2cn[nH]c12 (racemic)
pIC50 [1]: 9.74 | pIC50 [4]: 10.05

O=C(Nc1ccccc1Cl)N[C@@H](CC(=O)N1CCC(N2Cc3ccccc3NC2=O)CC1)C(=O)N1CCC(N2CCCCC2)CC1
pIC50 [4]: 7.00 | permeability [2]: impermeable | solubility [3]: Insoluble

O=C1Nc2ccccc2C2(CCN(C(=O)CC(Cc3ccc4[nH]ncc4c3)C(=O)N3CCC(N4CCCCC4)CC3)CC2)O1 (racemic)
pIC50 [1]: 7.82 | pIC50 [4]: 7.28

Cc1cc(CC(CC(=O)N2CCC(n3cc(-c4ccccc4)[nH]c3=O)CC2)C(=O)N2CCC(N3CCCCC3)CC2)cc2cn[nH]c12 (racemic)
pIC50 [1]: 9.82 | pIC50 [4]: 10.31

O=C(C[C@H](NC1CCC(O)CC1)C(=O)N1CCC(N2CCCCC2)CC1)N1CCC(N2Cc3ccccc3NC2=O)CC1 (stereo not given in full)
pIC50 [1]: 5.35

Cc1cc(CC(CC(=O)N2CCC(N3Cc4ccccc4NC3=O)CC2)C(=O)N2CCC(C)CC2)cc2cn[nH]c12 (racemic)
pIC50 [1]: 8.57 | pIC50 [4]: 8.70

Cc1cc(C[C@H](CC(=O)N2CCC(N3Cc4ccccc4NC3=O)CC2)C(=O)N2CCC(N3CCCCC3)CC2)cc2cn[nH]c12
pIC50 [1]: 7.96 | solubility [5]: Insoluble | pIC50 [4]: 7.96 | permeability [2]: impermeable

Cc1nc(N[C@@H](CC(=O)N2CCC(N3Cc4ccccc4NC3=O)CC2)C(=O)N2CCC(N3CCCCC3)CC2)nc(N)c1[N+](=O)[O-]
pIC50 [1]: 7.10

CC(C)(C)OC(=O)N[C@@H](CC(=O)N1CCC(N2Cc3ccccc3NC2=O)CC1)C(=O)N1CCC(N2CCCCC2)CC1
pIC50 [1]: 6.23

Cc1cc(CC(CC(=O)N2CCC3(CC2)OC(=O)Nc2ccccc23)C(=O)N2CCCCC2)cc2cn[nH]c12 (racemic)
pIC50 [1]: 7.72 | pIC50 [4]: 7.47

Cc1cc(CC(CC(=O)N2CCC3(CC2)NC(=O)Nc2ccccc23)C(=O)N2CCC(N3CCCCC3)CC2)cc2cn[nH]c12 (racemic)
pIC50 [1]: 9.47 | pIC50 [4]: 9.46

Cc1cc(CC(CC(=O)N2CCC3(CC2)OC(=O)Nc2ccccc23)C(=O)N2CCC(N3CCCCC3)CC2)cc2cn[nH]c12 (racemic)
pIC50 [1]: 9.48 | pIC50 [4]: 9.15

O=C1Nc2ccccc2C2(CCN(C(=O)CC(Cc3ccc4[nH]ncc4c3)C(=O)N3CCC4(CC3)OCCO4)CC2)O1 (racemic)
pIC50 [1]: 6.34
